{"source": "patent US10376520B2", "about": "“Methods for the treatment of cardiovascular disorders” (Galapagos NV, priority 2015, dated 2019)", "tested_on": "RA patients", "assay": "Total cholesterol determination, Study 1 (RA patients with inadequate response to methotrexate, add-on to MTX)", "assay_type": "in vivo, human", "settings": "for [total cholesterol] Mean CFB / [Total cholesterol] Median CFB: Study 1 24 weeks results; for [total cholesterol] Mean percentage CFB - 24 weeks results: continued 25 mg b.i.d (N = 69)", "procedure": "Double-blind, placebo-controlled add on study in subjects with moderately to severely active RA who have an inadequate response to methotrexate (MTX) (oral or parenteral).\n595 subjects randomized to one of 6 dose regimens of Compound 1 (dosed as a [Compound 1:HCl:3H2O]) (3 dose levels administered either once or twice daily) or placebo on top of each subject's stable dose of MTX.\nCompound 1 (dosed as a [Compound 1:HCl:3H2O]) is dosed for twelve weeks once daily (q.d.) (50 mg, 100 mg or 200 mg) or twice daily (b.i.d.) (25 mg, 50 mg or 100 mg); or placebo.\nAt Week 12, the subjects on placebo who have not achieved 20% improvement in swollen joint count (SJC66) and tender joint count (TJC68) are re-randomized automatically to receive Compound 1 (dosed as a [Compound 1:HCl:3H2O]) either at 100 mg q.d. or 50 mg b.i.d. doses in a blinded fashion; subjects on 50 mg q.d. who have not achieved 20% improvement in SJC66 and TJC68 will be assigned to 100 mg q.d. and subjects on 25 mg b.i.d. that have not achieved a 20% improvement in SJC66 and TJC68 will be assigned to 50 mg b.i.d. Subjects who switch treatment at week 12 are handled as if they discontinued at week 12 for the purpose of statistical analysis, whereas subjects in the other groups will maintain their randomized treatment until Week 24.\nThis method is based on the determination of Δ^4 cholestenone after enzymatic cleavage of the cholesterol ester by cholesterol esterase, conversion of cholesterol by cholesterol oxidase, and subsequent measurement by the Trinder reaction of the hydrogen peroxide formed (Allain et al., 1974).\nCholesterol esters are cleaved by the action of cholesterol esterase to yield free cholesterol and fatty acids. Cholesterol oxidase then catalyzes the oxidation of cholesterol to cholest-4-en-3-one and hydrogen peroxide. In the presence of peroxidase, the hydrogen peroxide formed effects the oxidative coupling of phenol and 4-aminophenazone to form a red quinone-imine dye. The color intensity of the dye formed is directly proportional to the cholesterol concentration. It is determined by measuring the increase in absorbance.\nHuman serum and plasma samples cholesterol determination was done on a Roche/Hitachi Cobas c 701/702 system which automatically calculate the analyte concentration of each sample.", "key": {"[1]": {"settings": "placebo switched to 50 mg b.i.d at week 12, week 16"}, "[2]": {"settings": "placebo switched to 50 mg b.i.d at week 12, week 20"}, "[3]": {"settings": "placebo switched to 50 mg b.i.d at week 12, week 24"}}, "data": [{"compound": "O=C(Nc1nc2cccc(-c3ccc(CN4CCS(=O)(=O)CC4)cc3)n2n1)C1CC1", "note": "[Compound 1, cyclopropanecarboxylic acid {5-[4-(1,1-dioxo-thiomorpholin-4-ylmethyl)-phenyl]-[1,2,4]triazolo[1,5-a]pyridin-2yl}-amide]", "values": [{"measurement": "[total cholesterol] Mean CFB", "setting": "continued 100 mg b.i.d., week 2", "value": 0.36, "unit": "mmol/L"}, {"measurement": "[total cholesterol] Mean CFB", "setting": "continued 100 mg b.i.d., week 4", "value": 0.43, "unit": "mmol/L"}, {"measurement": "[total cholesterol] Mean CFB", "setting": "continued 100 mg b.i.d., week 8", "value": 0.64, "unit": "mmol/L"}, {"measurement": "[total cholesterol] Mean CFB", "setting": "continued 100 mg b.i.d., week 12", "value": 0.64, "unit": "mmol/L"}, {"measurement": "[total cholesterol] Mean CFB", "setting": "continued 100 mg b.i.d., week 16", "value": 0.56, "unit": "mmol/L"}, {"measurement": "[total cholesterol] Mean CFB", "setting": "continued 100 mg b.i.d., week 20", "value": 0.54, "unit": "mmol/L"}, {"measurement": "[total cholesterol] Mean CFB", "setting": "continued 100 mg b.i.d., week 24", "value": 0.66, "unit": "mmol/L"}, {"measurement": "[Total cholesterol] Median CFB", "setting": "continued 100 mg q.d., week 1", "value": 0.14, "unit": "mmol/L"}, {"measurement": "[total cholesterol] Mean CFB", "setting": "continued 100 mg q.d., week 1", "value": 0.15, "unit": "mmol/L"}, {"measurement": "[Total cholesterol] Median CFB", "setting": "continued 100 mg q.d., week 2", "value": 0.06, "unit": "mmol/L"}, {"measurement": "[total cholesterol] Mean CFB", "setting": "continued 100 mg q.d., week 2", "value": 0.10, "unit": "mmol/L"}, {"measurement": "[Total cholesterol] Median CFB", "setting": "continued 100 mg q.d., week 4", "value": 0.25, "unit": "mmol/L"}, {"measurement": "[total cholesterol] Mean CFB", "setting": "continued 100 mg q.d., week 4", "value": 0.23, "unit": "mmol/L"}, {"measurement": "[Total cholesterol] Median CFB", "setting": "continued 100 mg q.d., week 8", "value": 0.09, "unit": "mmol/L"}, {"measurement": "[total cholesterol] Mean CFB", "setting": "continued 100 mg q.d., week 8", "value": 0.14, "unit": "mmol/L"}, {"measurement": "[Total cholesterol] Median CFB", "setting": "continued 100 mg q.d., week 12", "value": 0.30, "unit": "mmol/L"}, {"measurement": "[total cholesterol] Mean CFB", "setting": "continued 100 mg q.d., week 12", "value": 0.23, "unit": "mmol/L"}, {"measurement": "[Total cholesterol] Median CFB", "setting": "continued 100 mg q.d., week 16", "value": 0.00, "unit": "mmol/L"}, {"measurement": "[total cholesterol] Mean CFB", "setting": "continued 100 mg q.d., week 16", "value": 0.06, "unit": "mmol/L"}, {"measurement": "[Total cholesterol] Median CFB", "setting": "continued 100 mg q.d., week 20", "value": 0.17, "unit": "mmol/L"}, {"measurement": "[total cholesterol] Mean CFB", "setting": "continued 100 mg q.d., week 20", "value": 0.13, "unit": "mmol/L"}, {"measurement": "[Total cholesterol] Median CFB", "setting": "continued 100 mg q.d., week 24", "value": 0.30, "unit": "mmol/L"}, {"measurement": "[total cholesterol] Mean CFB", "setting": "continued 100 mg q.d., week 24", "value": 0.21, "unit": "mmol/L"}, {"measurement": "[total cholesterol] Mean CFB", "setting": "continued 200 mg q.d., week 1", "value": 0.26, "unit": "mmol/L"}, {"measurement": "[total cholesterol] Mean CFB", "setting": "continued 200 mg q.d., week 2", "value": 0.29, "unit": "mmol/L"}, {"measurement": "[total cholesterol] Mean CFB", "setting": "continued 200 mg q.d., week 4", "value": 0.37, "unit": "mmol/L"}, {"measurement": "[total cholesterol] Mean CFB", "setting": "continued 200 mg q.d., week 8", "value": 0.44, "unit": "mmol/L"}, {"measurement": "[total cholesterol] Mean CFB", "setting": "continued 200 mg q.d., week 12", "value": 0.46, "unit": "mmol/L"}, {"measurement": "[total cholesterol] Mean CFB", "setting": "continued 200 mg q.d., week 16", "value": 0.37, "unit": "mmol/L"}, {"measurement": "[total cholesterol] Mean CFB", "setting": "continued 200 mg q.d., week 20", "value": 0.43, "unit": "mmol/L"}, {"measurement": "[Total cholesterol] Median CFB", "setting": "continued 200 mg q.d., week 24", "value": 0.37, "unit": "mmol/L"}, {"measurement": "[total cholesterol] Mean CFB", "setting": "continued 200 mg q.d., week 24", "value": 0.39, "unit": "mmol/L"}, {"measurement": "[total cholesterol] Mean CFB", "setting": "increased from 25 mg b.i.d. to 50 mg b.i.d at 12 weeks, week 1", "value": -0.05, "unit": "mmol/L"}, {"measurement": "[total cholesterol] Mean CFB", "setting": "increased from 25 mg b.i.d. to 50 mg b.i.d at 12 weeks, week 2", "value": -0.01, "unit": "mmol/L"}, {"measurement": "[total cholesterol] Mean CFB", "setting": "increased from 25 mg b.i.d. to 50 mg b.i.d at 12 weeks, week 4", "value": -0.26, "unit": "mmol/L"}, {"measurement": "[total cholesterol] Mean CFB", "setting": "increased from 25 mg b.i.d. to 50 mg b.i.d at 12 weeks, week 8", "value": -0.30, "unit": "mmol/L"}, {"measurement": "[total cholesterol] Mean CFB", "setting": "increased from 25 mg b.i.d. to 50 mg b.i.d at 12 weeks, week 12", "value": -0.13, "unit": "mmol/L"}, {"measurement": "[total cholesterol] Mean CFB", "setting": "increased from 25 mg b.i.d. to 50 mg b.i.d at 12 weeks, week 16", "value": 0.08, "unit": "mmol/L"}, {"measurement": "[total cholesterol] Mean CFB", "setting": "increased from 25 mg b.i.d. to 50 mg b.i.d at 12 weeks, week 20", "value": -0.44, "unit": "mmol/L"}, {"measurement": "[total cholesterol] Mean CFB", "setting": "increased from 25 mg b.i.d. to 50 mg b.i.d at 12 weeks, week 24", "value": -0.09, "unit": "mmol/L"}, {"measurement": "[total cholesterol] Mean CFB", "setting": "increased from 50 mg q.d. to 100 mg q.d. at 12 weeks, week 1", "value": 0.05, "unit": "mmol/L"}, {"measurement": "[total cholesterol] Mean CFB", "setting": "increased from 50 mg q.d. to 100 mg q.d. at 12 weeks, week 2", "value": 0.26, "unit": "mmol/L"}, {"measurement": "[total cholesterol] Mean CFB", "setting": "increased from 50 mg q.d. to 100 mg q.d. at 12 weeks, week 4", "value": 0.11, "unit": "mmol/L"}, {"measurement": "[total cholesterol] Mean CFB", "setting": "increased from 50 mg q.d. to 100 mg q.d. at 12 weeks, week 8", "value": 0.10, "unit": "mmol/L"}, {"measurement": "[total cholesterol] Mean CFB", "setting": "increased from 50 mg q.d. to 100 mg q.d. at 12 weeks, week 12", "value": 0.10, "unit": "mmol/L"}, {"measurement": "[total cholesterol] Mean CFB", "setting": "increased from 50 mg q.d. to 100 mg q.d. at 12 weeks, week 16", "value": 0.37, "unit": "mmol/L"}, {"measurement": "[total cholesterol] Mean CFB", "setting": "increased from 50 mg q.d. to 100 mg q.d. at 12 weeks, week 20", "value": 0.34, "unit": "mmol/L"}, {"measurement": "[total cholesterol] Mean CFB", "setting": "increased from 50 mg q.d. to 100 mg q.d. at 12 weeks, week 24", "value": 0.25, "unit": "mmol/L"}, {"measurement": "[Total cholesterol] Median CFB", "setting": "[1]", "value": 0.25, "unit": "mmol/L"}, {"measurement": "[total cholesterol] Mean CFB", "setting": "[1]", "value": 0.08, "unit": "mmol/L"}, {"measurement": "[Total cholesterol] Median CFB", "setting": "[2]", "value": 0.25, "unit": "mmol/L"}, {"measurement": "[total cholesterol] Mean CFB", "setting": "[2]", "value": 0.18, "unit": "mmol/L"}, {"measurement": "[Total cholesterol] Median CFB", "setting": "[3]", "value": 0.36, "unit": "mmol/L"}, {"measurement": "[total cholesterol] Mean CFB", "setting": "[3]", "value": 0.06, "unit": "mmol/L"}, {"measurement": "[total cholesterol] Mean CFB", "setting": "placebo switched to 100 mg q.d. at week 12, week 16", "value": -0.16, "unit": "mmol/L"}, {"measurement": "[total cholesterol] Mean CFB", "setting": "placebo switched to 100 mg q.d. at week 12, week 20", "value": -0.17, "unit": "mmol/L"}, {"measurement": "[total cholesterol] Mean CFB", "setting": "placebo switched to 100 mg q.d. at week 12, week 24", "value": -0.26, "unit": "mmol/L"}, {"measurement": "[total cholesterol] Mean percentage CFB - 24 weeks results", "setting": "week 1", "value": 2.56, "unit": "%"}, {"measurement": "[total cholesterol] Mean percentage CFB - 24 weeks results", "setting": "week 2", "value": 3.22, "unit": "%"}, {"measurement": "[total cholesterol] Mean percentage CFB - 24 weeks results", "setting": "week 4", "value": 4.05, "unit": "%"}, {"measurement": "[total cholesterol] Mean percentage CFB - 24 weeks results", "setting": "week 8", "value": 4.25, "unit": "%"}]}]}
